Source: article PMC7435868, “Structure-Based Virtual Screening, Synthesis and Biological Evaluation of Potential FAK-FAT Domain Inhibitors for Treatment of Metastatic Cancer” (Molecules, 2020)

What was measured:
MDA-MB-231 = assay: Cell viability assay (CellTiter Glo), MDA-MB-231; type: cell-based; conditions: Homo sapiens, 72 h incubation, mean of independent triplicate experiments, read-out: In vitro anti-proliferative activity IC50, MDA-MB-231 ER- PR- HER-
Procedure: (§1) The antiproliferative activity of compound I as well as its newly synthesised analogues (5a–i) was evaluated in vitro against the three human breast cancer cell lines MDA-MB-231 (TNBC), T47D (ER^+, HER^−), and BT474 (ER^+, HER^+) as well as a human pancreatic cancer cell line MIAPaCa2. The seeding of the corresponding cell lines started one day before incubation, which lasted for 72 h with the different concentrations of the tested compounds. CellTiter Glo reagent (25 μL) was added to the cell plate. The luminescence was analysed after 10 min using a PerkinElmer Envision instrument. The test compounds were used at ten different triplicate concentrations in half log increments up to 100 μM.

T47D = assay: Cell viability assay (CellTiter Glo), T47D; type: cell-based, human; conditions: Homo sapiens, T47D, 72 h, 72 h incubation, mean of independent triplicate experiments, read-out: In vitro anti-proliferative activity IC50, T47D ER+ PR+/- HER-
Procedure: as §1

BT474 = assay: Cell viability assay (CellTiter Glo), BT474; type: cell-based, human; conditions: Homo sapiens, BT-474, 72 h, 72 h incubation, mean of independent triplicate experiments, read-out: In vitro anti-proliferative activity IC50, BT474 ER+ PR+/- HER+
Procedure: as §1

MIAPaCa2 = assay: Cell viability assay (CellTiter Glo), MIAPaCa2; type: cell-based; conditions: Homo sapiens, MIA PaCa-2, 72 h incubation, mean of independent triplicate experiments, read-out: In vitro anti-proliferative activity IC50, MIAPaCa2
Procedure: as §1

[1] = Microsomal metabolic stability
Procedure: Half-life (t1/2) values were measured at five time points.
Intrinsic clearance values (CLint) with standard error and t1⁄2 values were measured.
The final incubation volume was 50 μL. A minus cofactor control incubation was included for each compound tested where 0.1 M phosphate buffer pH 7.4 was added instead of NADPH (minus NADPH). Two control compounds were included with each species. All incubations were performed singularly for each test compound.
The reactions were stopped by transferring 20 μL of incubate to 60 μL methanol at the appropriate time points. The termination plates were centrifuged at 2500 rpm for 20 min at 4 °C to precipitate the protein.
Following protein precipitation, the sample supernatants were combined in cassettes of up to 4 compounds, the internal standard was added, and samples were analysed using Cyprotex generic LC-MS/MS conditions.
From a plot of ln peak area ratio (compound peak area/internal standard peak area) against time, the gradient of the line was determined.

[2] = tested on: MDA-MB-231, T47D, BT474, and MIAPaCa2; assay: Cell viability assay, statements across the four cell lines; type: cell-based, human; conditions: three human breast and one pancreatic cancer cell line, up to 100 μM
Procedure: as §1

MDA-MB-231 cells [3] = assay: Cell proliferation assay (7-day cell counting); type: cell-based, human; conditions: 7-day proliferation, 1 μM, vs vehicle-only control
Procedure: To assess proliferation, cells were seeded at 4.2 × 10^5 cells/mL in 24-well plates. Following 24 h, the media were replaced with fresh RPMI + 5% FCS, in the presence or absence of treatments and a selection of wells counted (day 0 counts). Cells were subsequently counted each day up to 7 days to assess proliferation. Briefly, this entailed the removal of old media and the addition of trypsin/EDTA in order to lift cells before passing gently through a 25 G needle to achieve a single-cell suspension. The resulting solution was then added to isoton in a counting cup and the cell number was determined using a Coulter Multisizer III (Beckman Coulter Life Sciences, Indianopolis, IN, USA) Each well was counted twice with all conditions performed in triplicate.

MDA-MB-231 cells [4] = assay: Boyden chamber migration; type: cell-based, human; conditions: 18 h Boyden chamber
Procedure: Migration was assessed utilising 24-well, transmembrane permeable support plates (Corning Lifesciences, Corning, New York, NY, USA) with 6.5 mm microporous membrane (8 μm pore size) inserts, each coated with 10 μg/mL fibronectin in sterile PBS. Inserts were placed into wells containing RPMI + 5% FCS (± treatments), before cells in serum-free RPMI were seeded into the top portion of each insert at a density of 50,000 cells/mL. Cells were then incubated at 37 °C and 5% CO2 for 18 h. After this migratory period was completed, cells were fixed to the underside of the inserts in 3.7% PFA in PBS and stained with 0.5% crystal violet solution. Resulting inserts were then imaged using a standard light microscope.

FAK = molecular target: T1, FAK (Homo sapiens, UniProt Q05397); assay: Western blotting of FAK activity; type: cell-based; conditions: MDA-MB-231, Western blot
T1 construct: in an in vitro model of TNBC, MDA-MB-231; endogenous in cells; host or cells: MDA-MB-231 (human triple negative breast cancer cells)
Description: This was expected, given that this compound limits protein–protein scaffolding interaction rather than kinase activity and subsequent phosphorylation of key FAK residues.

MDA-MB-231 cells [5] = assay: Immunofluorescence of active FAK (FAK Y861) and vinculin; type: cell-based, human
Procedure: The resulting fixed cells were subsequently permeabilised with 0.2% Triton-X100 in PBS for 8 min. This was proceeded by a 40 min block in 10% normal goat serum (in 1% BSA in PBS) prior to 30 min primary antibody incubation. Both FAK^Y861 and vinculin antibodies were diluted to working concentration (1:100 and 1:200, respectively) in 1% BSA in PBS. […] Slides were viewed using a 63X oil immersion lens on a Leica DM IRE2 microscope (Leica Microsystems, Wetzlar, Germany).

hERG potassium channel = hERG potassium channel (Homo sapiens, UniProt Q12809); assay: hERG channel inhibition (IonWorks automated patch clamp, CHO-hERG cells)
Procedure: Mammalian cells expressing the hERG potassium channel were dispensed into 384-well planar arrays and hERG tail-currents measured by whole-cell voltage-clamping. A range of concentrations of the test compound was then added to the cells and a second recording of the hERG current was made. […] IC50 is delivered, standard error (SE IC50), and n (number of data points used to calculate IC50) for the test compound. The experiments were performed on an Ion Works TM automated patch clamp instrument (Molecular Devices LLC (San Jose, California, United States)), which simultaneously performs electrophysiology measurements for 48 single cells in a specialised 384-well plate (PatchPlateTM(manufacturer, city, state if USA or Canada, country)). All cell suspensions, buffers, and test compound solutions were at room temperature during the experiment.
The cells used were Chinese hamster ovary (CHO) cells stably transfected with hERG (cell-line obtained from Cytomyx, UK). A single-cell suspension was prepared in extracellular solution (Dulbecco’s phosphate buffered saline with calcium and magnesium pH 7.2) and aliquots added automatically to each well of a Patch Plate TM. The cells were then positioned over a small hole at the bottom of each well by applying a vacuum beneath the plate to form an electrical seal. The vacuum was applied through a single compartment common to all wells which was filled with intracellular solution (buffered to pH 7.2 with HEPES). The resistance of each seal was measured via a common ground-electrode in the intracellular compartment and individual electrodes placed into each of the upper wells.
Electrical access to the cell was then achieved by circulating a perforating agent, amphotericin B, underneath the PatchPlateTM. The pre-compound hERG current was then measured. An electrode was positioned in the extracellular compartment and a holding potential of −80 mV applied for 15 s. The hERG channels were then activated by applying a depolarising step to +40 mV for 5 s and then clamped at −50 mV for 4 s to elicit the hERG tail current, before returning to −80 mV for 0.3 s.
The Ion Works TM instrument automatically adds test compound dilutions to the upper wells of the PatchPlateTM. The test compound was left in contact with the cells for 300 s before recording currents using the same voltage-step protocol as in the pre-compound scan.
Each concentration was tested in 4 replicate wells on the PatchPlateTM (maximum of 24 data points). Filters were applied to ensure only acceptable cells were used to assess hERG inhibition.
For each replicate, the hERG response was calculated using the following equation:% hERG response = [Post-compound current (nA)/Pre-compound current (nA)] × 100(5)

[6] = human, pooled liver microsomes, pH 7.4
[7] = MDA-MB-231, 1 h serum stimulated

T1 sequence (Q05397 whole entry): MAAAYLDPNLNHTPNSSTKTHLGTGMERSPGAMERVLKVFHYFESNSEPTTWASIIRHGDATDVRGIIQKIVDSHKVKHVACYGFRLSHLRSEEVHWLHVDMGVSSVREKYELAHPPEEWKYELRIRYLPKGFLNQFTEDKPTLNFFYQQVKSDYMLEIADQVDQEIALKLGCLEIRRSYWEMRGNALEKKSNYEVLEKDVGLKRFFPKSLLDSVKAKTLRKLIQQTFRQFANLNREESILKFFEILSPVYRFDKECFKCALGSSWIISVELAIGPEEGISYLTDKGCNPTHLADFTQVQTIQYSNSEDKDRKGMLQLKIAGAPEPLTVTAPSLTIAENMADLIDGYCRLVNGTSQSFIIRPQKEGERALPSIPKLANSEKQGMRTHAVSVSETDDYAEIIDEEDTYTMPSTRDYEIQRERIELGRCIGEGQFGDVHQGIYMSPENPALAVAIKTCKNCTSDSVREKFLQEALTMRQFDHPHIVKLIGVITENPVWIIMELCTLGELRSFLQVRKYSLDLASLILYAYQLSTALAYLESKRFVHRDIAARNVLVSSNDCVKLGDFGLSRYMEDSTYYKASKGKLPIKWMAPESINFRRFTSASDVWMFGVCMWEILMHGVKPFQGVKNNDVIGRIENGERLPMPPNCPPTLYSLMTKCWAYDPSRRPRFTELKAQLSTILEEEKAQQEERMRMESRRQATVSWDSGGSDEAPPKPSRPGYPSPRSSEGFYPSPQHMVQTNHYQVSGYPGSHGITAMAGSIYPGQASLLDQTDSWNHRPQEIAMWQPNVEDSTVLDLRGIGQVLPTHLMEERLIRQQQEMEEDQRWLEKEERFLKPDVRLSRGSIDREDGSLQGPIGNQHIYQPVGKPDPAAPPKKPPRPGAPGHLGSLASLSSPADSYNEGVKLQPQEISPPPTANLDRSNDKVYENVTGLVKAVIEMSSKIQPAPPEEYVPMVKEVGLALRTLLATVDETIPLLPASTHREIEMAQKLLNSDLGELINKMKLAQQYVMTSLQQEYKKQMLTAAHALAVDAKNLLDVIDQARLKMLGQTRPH
Chain of hERG potassium channel (Q12809 whole entry): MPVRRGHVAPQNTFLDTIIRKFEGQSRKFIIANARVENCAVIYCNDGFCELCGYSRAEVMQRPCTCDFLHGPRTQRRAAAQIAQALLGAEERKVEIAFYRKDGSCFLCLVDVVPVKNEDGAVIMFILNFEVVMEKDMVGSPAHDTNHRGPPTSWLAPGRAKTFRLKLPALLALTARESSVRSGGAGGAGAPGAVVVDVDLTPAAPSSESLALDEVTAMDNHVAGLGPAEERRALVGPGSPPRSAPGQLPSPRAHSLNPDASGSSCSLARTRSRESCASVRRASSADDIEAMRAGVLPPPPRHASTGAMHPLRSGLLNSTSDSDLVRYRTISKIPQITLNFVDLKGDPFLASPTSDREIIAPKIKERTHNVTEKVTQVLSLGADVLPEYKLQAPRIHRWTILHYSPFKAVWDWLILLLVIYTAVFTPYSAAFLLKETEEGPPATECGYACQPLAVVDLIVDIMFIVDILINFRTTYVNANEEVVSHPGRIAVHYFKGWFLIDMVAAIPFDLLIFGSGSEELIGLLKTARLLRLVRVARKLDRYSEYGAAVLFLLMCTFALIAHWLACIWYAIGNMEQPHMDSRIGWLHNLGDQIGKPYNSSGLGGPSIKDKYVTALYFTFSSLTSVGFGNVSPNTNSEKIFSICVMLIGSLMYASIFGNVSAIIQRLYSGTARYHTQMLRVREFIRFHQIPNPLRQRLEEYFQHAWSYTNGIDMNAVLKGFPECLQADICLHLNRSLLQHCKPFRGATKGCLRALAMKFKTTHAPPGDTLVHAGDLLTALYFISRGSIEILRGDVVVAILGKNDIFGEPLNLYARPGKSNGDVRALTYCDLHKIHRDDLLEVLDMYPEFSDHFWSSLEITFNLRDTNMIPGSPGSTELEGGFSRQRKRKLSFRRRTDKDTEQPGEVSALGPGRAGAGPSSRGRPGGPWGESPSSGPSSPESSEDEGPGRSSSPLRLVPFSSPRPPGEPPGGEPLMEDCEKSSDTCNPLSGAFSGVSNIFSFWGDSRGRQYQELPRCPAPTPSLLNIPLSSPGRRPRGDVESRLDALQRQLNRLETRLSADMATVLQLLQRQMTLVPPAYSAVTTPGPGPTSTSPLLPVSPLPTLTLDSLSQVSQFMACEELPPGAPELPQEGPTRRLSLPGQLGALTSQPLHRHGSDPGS

CC(C)(C)c1ccc(C(CN)c2ccc(Cl)cc2)cc1 (stereo not shown) [Compound I]
IC50 (MDA-MB-231): 6.37 µM
IC50 (T47D): 6.71 µM
IC50 (BT474): 2.67 µM
IC50 (MIAPaCa2): 5.66 µM
Compound Remaining (% of 0 min), 0 min ([1]; human liver microsomes, 0 min): 100 % of 0 min
Compound Remaining (% of 0 min), 5 min ([1]; human liver microsomes, 5 min): 89.4 % of 0 min
Compound Remaining (% of 0 min), 15 min ([1]; human liver microsomes, 15 min): 92.3 % of 0 min
Compound Remaining (% of 0 min), 30 min ([1]; human liver microsomes, 30 min): 77.9 % of 0 min
Compound Remaining (% of 0 min), 45 min ([1]; human liver microsomes, 45 min): 81.3 % of 0 min
Compound Remaining (% of 0 min), Control ([1]; human liver microsomes, minus NADPH control, 45 min): 95.7 % of 0 min
half-life at 3 μM [1, 6]: 2.53 h
microsomal CLint at 3 μM [1, 6]: 9.1 µL/min/mg
Anti-proliferative activity (in words) across the four cell lines [2]: low micromolar antiproliferative activity
Proliferation rates of MDA-MB-231 cells (MDA-MB-231 cells [3]): significantly reduce proliferation rates
Serum-stimulated migration (MDA-MB-231 cells [4]): significant reduction in serum-stimulated migration
Activity of FAK Y397 / FAK Y925 (phosphorylation) (FAK): no significant changes
Stability of total FAK protein (FAK): no changes in the stability of total FAK protein
Number of focal adhesions/cell (MDA-MB-231 cells [5]; [7]): significant increase in focal adhesions
Size of focal adhesions (MDA-MB-231 cells [5]; [7]): no effect on the size of focal adhesions
Localisation of FAK to the cell periphery (MDA-MB-231 cells [5]; MDA-MB-231, 1 h serum stimulated, vs vehicle-only controls): increased localisation of FAK to the cell periphery
Active FAK throughout the cytoplasm (MDA-MB-231 cells [5]; MDA-MB-231, versus PF271 treated cells): significantly more active FAK displayed throughout the cytoplasm
IC50 (hERG potassium channel): 5.47 µM
